Results published in patent US11987575B2, “Tricyclic compounds as BCR-ABL inhibitors” (ASCENTAGE PHARMA (SUZHOU) CO., LTD., priority 2019, dated 2024).

Columns and labels:
BaF3 (T315I mutant) = BaF3 (T315I mutant) (Homo sapiens, UniProt P00519, T315I, cells depend on it); test: WST (CCK-8) anti-proliferative assay, BaF3 T315I mutant; details: read-out: BaF3 (T315I mutant), 72 h treatment, CCK-8 readout OD 450 nm
Procedure: (§1) The anti-proliferative effect of representative compounds of the present disclosure was determined by a water-soluble tetrazolium (WST)-based assay using Cell Counting Kit-8 (CCK-8). Cells were seeded in 96-well plates and treated with different concentrations of test articles for 72 h. Each treatment was tested in triplicate. Briefly, a series of 9 concentrations were chosen for each test article and added at 100 μl/well into a 96-well plate. Each concentration was tested in triplicate. 100 μl of diluent was added into 3-6 wells in the same plate for cell control group, and another set of 3-6 wells was used as a blank control.
(§2) In each well, 100 μl of cell suspension (containing optimal cell numbers, which creates approximately 100% confluence of cells in control wells based on by the absorbance (OD) value) was dispensed into the same 96-well plate except for the blank well. The plate was then cultured at 37° C. in an incubator in an atmosphere with 5% CO2 for 72 h. At the end of the treatments, 20 μl/well of CCK-8 reagent was directly added to each well. The plate was then incubated at 37° C. in an incubator in an atmosphere with 5% CO2 for 2-4 hours.
(§3) The cells viability was calculated using the mean OD value of triplicated wells following the equation below: (OD sample−OD blank)/(OD cell control−OD blank)×100 IC50 values were calculated with Graphpad Prism 6.0 software using nonlinear regression (curve fitting) type data analysis.

BaF3(WT) = BaF3(WT) (Homo sapiens, UniProt P00519); test: WST (CCK-8) anti-proliferative assay, BaF3 WT; details: read-out: BaF3(WT); BaF3 WT cells, 72 h treatment, CCK-8 readout OD 450 nm
Procedure: as §1, §2, §3

SMILES	GI50 (BaF3 (T315I mutant))	GI50 (BaF3(WT))
CC(C)NS(=O)(=O)NC1CCC2c3cc(C(=O)Nc4ccc(OC(F)(F)Cl)cc4)cc(-c4ccn[nH]4)c3N(C(C)C)C12 (stereo not shown) [Compound 19]	97 nM	6 nM
CC(=O)NC1CCC2c3cc(C(=O)Nc4ccc(OC(F)(F)Cl)cc4)cc(-c4cncnc4)c3N(C(C)C)C12 (stereo not shown) [Compound 20]	44 nM	9 nM
CC(=O)N[C@@H]1CC[C@H]2c3cc(C(=O)Nc4ccc(OC(F)(F)Cl)cc4)cc(-c4cncc(C#N)c4)c3N(C(C)C)[C@@H]12 [Compound 53-A]	16 nM	3 nM
CC(=O)NC1CCC2c3cc(C(=O)Nc4ccc(OC(F)(F)Cl)cc4)cc(-c4cncc(F)c4)c3N(C3CCCC3)C12 (stereo not shown) [Compound 64]	43 nM	8 nM
CC(=O)N(C)C1CCC2c3cc(C(=O)Nc4ccc(OC(F)(F)Cl)cc4)cc(-c4ccn[nH]4)c3N(C(C)C)C21 (stereo not shown) [Compound 44, N-(4-(chlorodifluoromethoxy)phenyl)-4-isopropyl-3-(N-methylacetamido)-5-(1H-pyrazol-5-yl)-1,2,3,3a,4,8b-hexahydrocyclopenta[b]indole-7-carboxamide]	122 nM	36 nM
CC(C)N1c2c(-c3ccn[nH]3)cc(C(=O)Nc3ccc(OC(F)(F)Cl)cc3)cc2C2CCC(NS(=O)(=O)N(C)C)C21 (stereo not shown) [Compound 12]	216 nM	10 nM
CC(C)N1c2c(-c3ccn[nH]3)cc(C(=O)Nc3ccc(OC(F)(F)Cl)cc3)cc2C2CCC(NC(=O)C3CCNCC3)C21 (stereo not shown) [Compound 27]	5060 nM	1240 nM
CC(C)N1c2c(-c3ccn[nH]3)cc(C(=O)Nc3ccc(OC(F)(F)Cl)cc3)cc2C2CCC(N3CCCS3(=O)=O)C21 (stereo not shown) [Compound 37, N-(4-(chlorodifluoromethoxy)phenyl)-3-(1,1-dioxidoisothiazolidin-2-yl)-4-isopropyl-5-(1H-pyrazol-5-yl)-1,2,3,3a,4,8b-hexahydrocyclopenta[b]indole-7-carboxamide]	245 nM	25 nM
CC(C)N1c2c(-c3ccn[nH]3)cc(C(=O)Nc3ccc(OC(F)(F)Cl)cc3)cc2[C@@H]2CCS(=O)(=O)C[C@@H]21 [Compound 54-A, (4aS,9aR)-N-(4-(chlorodifluoromethoxy)phenyl)-9-isopropyl-8-(1H-pyrazol-5-yl)-1,3,4,4a,9,9a-hexahydrothiopyrano[3,4-b]indole-6-carboxamide 2,2-dioxide]	45 nM	8 nM
CC(=O)N[C@@H]1CC[C@H]2c3cc(C(=O)Nc4ccc(OC(F)(F)Cl)cc4)cc(-c4cnc(C)nc4)c3N(CC(C)(C)C)[C@@H]12 [Compound 61-A]	56 nM	11 nM
CC(=O)N[C@H]1CC[C@@H]2c3cc(C(=O)Nc4ccc(OC(F)(F)Cl)cc4)cc(-c4cccnc4)c3N(C(C)C)[C@H]12 [Compound 26-B, (3S,3aS,8bR)-3-acetamido-N-(4-(chlorodifluoromethoxy)phenyl)-4-isopropyl-5-(pyridin-3-yl)-1,2,3,3a,4,8b-hexahydrocyclopenta[b]indole-7-carboxamide]	956 nM	186 nM
CC(=O)N[C@@H]1CC[C@H]2c3cc(C(=O)Nc4ccc(OC(F)(F)Cl)cc4)cc(-c4cc(F)cc(C#N)c4)c3N(C(C)C)[C@@H]12 [Compound 48-A]	14 nM	2 nM
CC(C)N1c2c(-c3ccn[nH]3)cc(C(=O)Nc3ccc(OC(F)(F)Cl)cc3)cc2C2CCC(NC(=O)CCC(=O)O)C21 (stereo not shown) [Compound 39, 4-((7-((4-(chlorodifluoromethoxy)phenyl)carbamoyl)-4-isopropyl-5-(1H-pyrazol-5-yl)-1,2,3,3a,4,8b-hexahydrocyclopenta[b]indol-3-yl)amino)-4-oxobutanoic acid]	5710 nM	2760 nM
CC(=O)NC1CCC2c3cc(C(=O)Nc4ccc(OC(F)(F)Cl)cc4)cc(-c4ccncc4)c3N(C(C)C)C12 (stereo not shown) [Compound 21]	176 nM	27 nM
CC(=O)NC1CCC2c3cc(C(=O)Nc4ccc(OC(F)(F)Cl)cc4)cc(-c4cc[nH]n4)c3N(CC(F)(F)F)C12 (stereo not shown) [Compound 49]	125 nM	72 nM
COCC(=O)NC1CCC2c3cc(C(=O)Nc4ccc(OC(F)(F)Cl)cc4)cc(-c4ccn[nH]4)c3N(C(C)C)C12 (stereo not shown) [Compound 9]	206 nM	17 nM
CC(C)C(=O)NC1CCC2c3cc(C(=O)Nc4ccc(OC(F)(F)Cl)cc4)cc(-c4ccn[nH]4)c3N(C(C)C)C12 (stereo not shown) [Compound 7]	142 nM	14 nM
CC(C)N1c2c(-c3ccn[nH]3)cc(C(=O)Nc3ccc(OC(F)(F)Cl)cc3)cc2C2CCC(NS(C)(=O)=O)C21 (stereo not shown) [Compound 6]	154 nM	67 nM

SMILES	GI50 (BaF3 (T315I mutant))	GI50 (BaF3(WT))
CC(C)N1c2c(-c3ccn[nH]3)cc(C(=O)Nc3ccc(OC(F)(F)Cl)cc3)cc2C2CCC(NS(=O)(=O)c3nnc[nH]3)C21 (stereo not shown) [Compound 17]	1670 nM	1060 nM
CCC(CC)N1c2c(-c3cncc(F)c3)cc(C(=O)Nc3ccc(OC(F)(F)Cl)cc3)cc2C2CCC(NC(C)=O)C21 (stereo not shown) [Compound 65]	119 nM	9 nM
CC(=O)N[C@@H]1CC[C@H]2c3cc(C(=O)Nc4ccc(OC(F)(F)Cl)cc4)cc(-c4ccn[nH]4)c3N(CC(C)(C)C)[C@@H]12 [Compound 22-A, (3R,3aR,8bS)-3-acetamido-N-(4-(chlorodifluoromethoxy)phenyl)-4-neopentyl-5-(1H-pyrazol-5-yl)-1,2,3,3a,4,8b-hexahydrocyclopenta[b]indole-7-carboxamide]	21 nM	3 nM
CC(=O)N[C@@H]1CC[C@H]2c3cc(C(=O)Nc4ccc(OC(F)(F)Cl)cc4)cc(-c4cncc(C)c4)c3N(C(C)C)[C@@H]12 [Compound 50-A]	39 nM	4 nM
COC(C)(C)CN1c2c(-c3ccn[nH]3)cc(C(=O)Nc3ccc(OC(F)(F)Cl)cc3)cc2C2CCC(NC(C)=O)C21 (stereo not shown) [Compound 63]	52 nM	41 nM
CC(C)N1c2c(-c3ccn[nH]3)cc(C(=O)Nc3ccc(OC(F)(F)Cl)cc3)cc2C2CCCC21 (stereo not shown) [Compound 2, N-(4-(chlorodifluoromethoxy)phenyl)-4-isopropyl-5-(1H-pyrazol-5-yl)-1,2,3,3a,4,8b-hexahydrocyclopenta[b]indole-7-carboxamide]	354 nM	15 nM
CC(=O)N[C@@H]1CC[C@H]2c3cc(C(=O)Nc4ccc(OC(F)(F)Cl)cc4)cc(-c4ccn[nH]4)c3N(C(C)C)[C@@H]12 [Compound 4-A, (3R,3aR,8bS)-3-acetamido-N-(4-(chlorodifluoromethoxy)phenyl)-4-isopropyl-5-(1H-pyrazol-5-yl)-1,2,3,3a,4,8b-hexahydrocyclopenta[b]indole-7-carboxamide]	35 nM	3 nM
CC(=O)N1CCC2c3cc(C(=O)Nc4ccc(OC(F)(F)Cl)cc4)cc(-c4ccn[nH]4)c3N(C(C)C)C2C1 (stereo not shown) [Compound 42, 2-acetyl-N-(4-(chlorodifluoromethoxy)phenyl)-9-isopropyl-8-(1H-pyrazol-5-yl)-2,3,4,4a,9,9a-hexahydro-1H-pyrido[3,4-b]indole-6-carboxamide]	115 nM	38 nM
CC(=O)N[C@@H]1CC[C@H]2c3cc(C(=O)Nc4ccc(OC(F)(F)Cl)cc4)cc(-c4cccnn4)c3N(CC(C)(C)C)[C@@H]12 [Compound 59-A]	122 nM	65 nM
CC(=O)NC1CCC2c3cc(C(=O)Nc4ccc(OC(F)(F)Cl)cc4)cc(-c4ccn[nH]4)c3N(C(C)C)C12 (stereo not shown) [Compound 4, 3-acetamido-N-(4-(chlorodifluoromethoxy)phenyl)-4-isopropyl-5-(1H-pyrazol-5-yl)-1,2,3,3a,4,8b-hexahydrocyclopenta[b]indole-7-carboxamide]	71 nM	14 nM
CC(C)N1c2c(-c3ccn[nH]3)cc(C(=O)Nc3ccc(OC(F)(F)Cl)cc3)cc2C2CCC(NS(=O)(=O)N3CCCCC3)C21 (stereo not shown) [Compound 16]	252 nM	12 nM
CC(=O)NC1CCC2c3cc(C(=O)Nc4ccc(OC(F)(F)Cl)cc4)cc(-c4ccn[nH]4)c3N(C3CC3)C12 (stereo not shown) [Compound 62]	41 nM	21 nM
CC(=O)N[C@@H]1CC[C@H]2c3cc(C(=O)Nc4ccc(OC(F)(F)Cl)cc4)cc(-c4cncnc4)c3N(C(C)C)[C@@H]12 [Compound 20-A, (3R,3aR,8bS)-3-acetamido-N-(4-(chlorodifluoromethoxy)phenyl)-4-isopropyl-5-(pyrimidin-5-yl)-1,2,3,3a,4,8b-hexahydrocyclopenta[b]indole-7-carboxamide]	29 nM	42 nM
CC(=O)N[C@H]1CC[C@@H]2c3cc(C(=O)Nc4ccc(OC(F)(F)Cl)cc4)cc(-c4ccn[nH]4)c3N(CC(C)(C)C)[C@H]12 [Compound 22-B, (3S,3aS,8bR)-3-acetamido-N-(4-(chlorodifluoromethoxy)phenyl)-4-neopentyl-5-(1H-pyrazol-5-yl)-1,2,3,3a,4,8b-hexahydrocyclopenta[b]indole-7-carboxamide]	1010 nM	482 nM
CC(C)N1c2c(-c3ccn[nH]3)cc(C(=O)Nc3ccc(OC(F)(F)Cl)cc3)cc2C2CCC(NC(=O)c3cocn3)C21 (stereo not shown) [Compound 30]	64 nM	16 nM
CC(=O)N[C@@H]1CC[C@H]2c3cc(C(=O)Nc4ccc(OC(F)(F)Cl)cc4)cc(-c4ccc(C#N)nc4)c3N(C(C)C)[C@@H]12 [Compound 47-A]	13 nM	5 nM
CC(=O)NC1CCC2c3cc(C(=O)Nc4ccc(OC(F)(F)Cl)cc4)cc(-c4cccnc4)c3N(C(C)C)C12 (stereo not shown) [Compound 26]	65 nM	12 nM
